# Measured values: US20220323548A1 (priority 2019, published 2022)
# How the values were obtained:
# C57BKS/J dbdb mice = test: Anti-diabetic (blood glucose lowering) effect in Type 2 diabetes mouse models; conditions: 20 nmole/kg s.c., 0-48 hours
# rat islets = test: Glucose-dependent insulin secretion from rat islets, rat insulin ELISA (part II); type: cell-based; conditions: 28 mM glucose, Table 9
# Description: The pancreas of 8-week-old SD rats (Damul Science) was extracted, and islets were isolated.
# human GLP-1R = human GLP-1R (Homo sapiens, UniProt P43220); test: GLP-1 receptor luciferase reporter assay (part II, dimer analogs); conditions: CV-1 cells transfected with human GLP-1R and CRE, Table 8
# Sequence of human GLP-1R (P43220 24-463): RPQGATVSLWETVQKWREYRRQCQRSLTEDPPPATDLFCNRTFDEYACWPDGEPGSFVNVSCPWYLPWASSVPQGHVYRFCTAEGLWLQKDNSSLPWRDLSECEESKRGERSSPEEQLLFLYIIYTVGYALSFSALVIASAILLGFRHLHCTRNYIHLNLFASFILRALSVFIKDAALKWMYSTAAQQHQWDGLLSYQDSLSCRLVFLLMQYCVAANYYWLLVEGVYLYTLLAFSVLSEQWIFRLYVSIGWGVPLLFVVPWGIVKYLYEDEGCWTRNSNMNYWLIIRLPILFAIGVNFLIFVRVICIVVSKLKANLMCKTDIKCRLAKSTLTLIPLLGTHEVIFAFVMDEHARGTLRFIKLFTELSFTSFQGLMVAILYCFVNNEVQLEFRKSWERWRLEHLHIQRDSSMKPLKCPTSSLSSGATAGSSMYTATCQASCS
# Protocol: Specifically, the fibroblast cell line CV-1 (1×10^4 cells/ml, Korea Cell Line Bank) was cultured on a 96-well white cell culture plate for 24 hours, and then human GLP-1R (pcDNA3.1_hGLP-1R) and cAMP response element (CRE, pcDNA3.1_hCRE) were added to perform transfection. After 24 hours, the medium was exchanged with a serum-free medium, followed by culture for 16 hours, and then each analog was treated for 6 hours. The expression level of luciferase, a reporter gene, by activated GLP-1R, was quantified by a luminometer, and the results are shown in Table 8.
structure (smiles),measurement,setting,value
"CCCCCCCCCC(=O)NCCCC[C@H](NC(=O)[C@H](CO)NC(=O)[C@@H]1CCCN1C(=O)CNC(=O)CNC(=O)[C@H](CC(N)=O)NC(=O)[C@H](CCCCN)NC(=O)[C@H](CC(C)C)NC(=O)[C@H](Cc1c[nH]c2ccccc12)NC(=O)[C@H](CSCC(=O)N[C@@H]1O[C@H](CO)[C@@H](O[C@@H]2O[C@H](CO)[C@@H](O[C@@H]3O[C@H](CO[C@H]4O[C@H](CO)[C@@H](O)[C@H](O)[C@@H]4O[C@@H]4O[C@H](CO)[C@@H](O[C@@H]5O[C@H](CO[C@]6(C(=O)OCc7ccccc7)C[C@H](O)[C@@H](NC(C)=O)[C@H]([C@H](O)[C@H](O)CO)O6)[C@H](O)[C@H](O)[C@H]5O)[C@H](O)[C@H]4NC(C)=O)[C@@H](O)[C@H](O[C@H]4O[C@H](CO)[C@@H](O)[C@H](O)[C@@H]4O[C@@H]4O[C@H](CO)[C@@H](O[C@@H]5O[C@H](CO[C@]6(C(=O)OCc7ccccc7)C[C@H](O)[C@@H](NC(C)=O)[C@H]([C@H](O)[C@H](O)CO)O6)[C@H](O)[C@H](O)[C@H]5O)[C@H](O)[C@H]4NC(C)=O)[C@@H]3O)[C@H](O)[C@H]2NC(C)=O)[C@H](O)[C@H]1NC(C)=O)NC(=O)[C@@H](NC(=O)[C@H](Cc1ccccc1)NC(=O)[C@H](CC(C)C)NC(=O)[C@H](CCCNC(=N)N)NC(=O)[C@@H](NC(=O)[C@H](C)NC(=O)[C@H](CSSC[C@H](NC(=O)[C@H](CCC(=O)O)NC(=O)[C@H](CCC(=O)O)NC(=O)[C@H](CCSC)NC(=O)[C@H](CCC(N)=O)NC(=O)[C@H](CCCCN)NC(=O)[C@H](CO)NC(=O)[C@H](CC(C)C)NC(=O)[C@H](CC(=O)O)NC(=O)[C@H](CO)NC(=O)[C@@H](NC(=O)[C@H](Cc1ccccc1)NC(=O)[C@@H](NC(=O)CNC(=O)[C@H](CCC(=O)O)NC(=O)CNC(=O)[C@@H](N)Cc1c[nH]cn1)[C@@H](C)O)[C@@H](C)O)C(=O)N[C@@H](C)C(=O)N[C@H](C(=O)N[C@@H](CCCNC(=N)N)C(=O)N[C@@H](CC(C)C)C(=O)N[C@@H](Cc1ccccc1)C(=O)N[C@H](C(=O)N[C@@H](CSCC(=O)N[C@@H]1O[C@H](CO)[C@@H](O[C@@H]2O[C@H](CO)[C@@H](O[C@@H]3O[C@H](CO[C@H]4O[C@H](CO)[C@@H](O)[C@H](O)[C@@H]4O[C@@H]4O[C@H](CO)[C@@H](O[C@@H]5O[C@H](CO[C@]6(C(=O)OCc7ccccc7)C[C@H](O)[C@@H](NC(C)=O)[C@H]([C@H](O)[C@H](O)CO)O6)[C@H](O)[C@H](O)[C@H]5O)[C@H](O)[C@H]4NC(C)=O)[C@@H](O)[C@H](O[C@H]4O[C@H](CO)[C@@H](O)[C@H](O)[C@@H]4O[C@@H]4O[C@H](CO)[C@@H](O[C@@H]5O[C@H](CO[C@]6(C(=O)OCc7ccccc7)C[C@H](O)[C@@H](NC(C)=O)[C@H]([C@H](O)[C@H](O)CO)O6)[C@H](O)[C@H](O)[C@H]5O)[C@H](O)[C@H]4NC(C)=O)[C@@H]3O)[C@H](O)[C@H]2NC(C)=O)[C@H](O)[C@H]1NC(C)=O)C(=O)N[C@@H](Cc1c[nH]c2ccccc12)C(=O)N[C@@H](CC(C)C)C(=O)N[C@@H](CCCCN)C(=O)N[C@@H](CC(N)=O)C(=O)NCC(=O)NCC(=O)N1CCC[C@H]1C(=O)N[C@@H](CO)C(=O)N[C@@H](CCCCNC(=O)CCCCCCCCC)C(=O)O)[C@@H](C)CC)C(C)C)NC(=O)[C@H](CCC(=O)O)NC(=O)[C@H](CCC(=O)O)NC(=O)[C@H](CCSC)NC(=O)[C@H](CCC(N)=O)NC(=O)[C@H](CCCCN)NC(=O)[C@H](CO)NC(=O)[C@H](CC(C)C)NC(=O)[C@H](CC(=O)O)NC(=O)[C@H](CO)NC(=O)[C@@H](NC(=O)[C@H](Cc1ccccc1)NC(=O)[C@@H](NC(=O)CNC(=O)[C@H](CCC(=O)O)NC(=O)CNC(=O)[C@@H](N)Cc1c[nH]cn1)[C@@H](C)O)[C@@H](C)O)C(C)C)[C@@H](C)CC)C(=O)O [AGM-212-1, AGM-212(E17C & E24C-11 sugar)-S-S-AGM-212(E17C & E24C-11 sugar)]",anti-diabetic effect (blood glucose lowering),C57BKS/J dbdb mice,reduced anti-diabetic effect
same,Insulin secretion from rat islets,rat islets; 10 nM analog,14506.04 ± 3493.9 pg/mL
same,Insulin secretion from rat islets,rat islets; 100 nM analog,20080 ± 8384.9 pg/mL
same,Emax (fold induction over basal),human GLP-1R,10.1 ± 1.2 fold induction over basal
